US8455474B2, “Method for treating tuberculosis” (Mackay Memorial Hospital, priority 2011, dated 2013)

Assays:
[1] = system: Mycobacterium tuberculosis; experiment: Killing kinetics in vitro (7H9 broth OD600, CFU on 7H11 agar); format: cell-based
Description: Mycobacterium tuberculosis strains were obtained from the culture collection of the Mycobacteriology Laboratory, Mackay Memorial Hospital, Taipei, Taiwan. The organisms were cultured on Lowenstein-Jensen medium slant at 37° C. in a 10% CO2 humidified atmosphere. In mid-log phase, the colonies were harvested and resuspended with PBS. The turbidity of suspension was adjusted to a McFarland 0.5 standard, containing approximately 1×10^8 bacteria/ml.
Strains were grown in 7H9 medium and the turbidity of suspension was adjusted to a McFarland 0.5 standard and used as inocula after ten-fold dilution in 7H9 medium with or without various concentrations of EZETIMIBE. The kinetics of bactericidal effect of EZETIMIBE was estimated by measuring the optical density at 600 nm at the indicated time points, followed by plating for colony formation unit (CFU) enumeration on 7H11 agar plates.

[2] = system: M. tuberculosis internalization into monocytes; experiment: Internalization of M. tuberculosis by monocytes (flow cytometry); format: cell-based, Mycobacterium tuberculosis
Description: (§1) Peripheral blood mononuclear cells were isolated from whole blood by means of Ficoll-Paque gradient centrifugation. Monocytes were incubated with CD14 microbeads, after which the CD14-positive cells were separated out by a magnet. These cells were seeded in U-bottom 96-well plates at a density of 2×10^5 cells in a volume of 200 μl of PRMI-1640 medium with 10% FCS and cultured for 1 hour in the presence or absence of EZETIMIBE (resolved in alcohol). Next, 5×10^5 M. tuberculosis bacteria were added to each well, followed by incubation for 24 hours. Cell viability was tested by using trypan blue staining. In the post-treatment experiment, monocytes were infected with M. tuberculosis bacteria for 1 hour and then added with EZETIMIBE for another 24 hours. In the cholesterol supplement experiment, water soluble cholesterol (Sigma) was resolved in sterile deionized water and added into the culture medium with or without EZETIMIBE.
Infected monocytes described above receiving either EZETIMIBE or control were washed with PBS to remove unbound bacteria and fixed with 4% formalin for 24 hours at 4° C. Then cells were permeabilized by using permeabilization buffer and stained with fluorescein isothiocyanate-conjugated anti-M. tuberculosis antibody for 1 hour at 4° C. The fluorescence intensity of intracellular M. tuberculosis was than analyzed by flow cytometry. Stained cells were evaluated by FACS Calibur flow cytometer (BD Bioscience). Analysis was performed using CellQuest software (BD Bioscience).
As shown in FIGS. 2A-2D, the experiments were performed to assess whether the treatment of EZETIMIBE affected M. tuberculosis internalization into monocytes, and the monocytes were pretreated with EZETIMIBE for 24 hours or 48 hours.

[3] = system: intracellular M. tuberculosis in monocytes; experiment: Intracellular survival of M. tuberculosis in monocytes (CFU assay); format: cell-based, Mycobacterium tuberculosis
CD13 = biological target: T1, CD13 (Homo sapiens, UniProt P15144); experiment: CD13 expression on monocytes (antiCD13 antibody staining); format: cell-based; conditions: monocytes pretreated 24 or 48 hours, clones WM15 and WM47
T1 construct: whether the treatment of EZETIMIBE affected CD13 expression on monocytes; endogenous in cells; host or cells: monocytes

monocytes = experiment: Cholesterol uptake of monocytes (nile red staining, flow cytometry); format: cell-based; conditions: cholesterol supplement 10 μg/ml
Description: as §1
A stock solution of nile red (1 mg/ml) in acetone was prepared and stored at 4° C. and protected from light. The nile red solution was added to the cell preparation (final concentration: 1 μg/ml) for 10 minutes and excess dye was washed away with PBS. Nile red fluorescence was examined at two spectral settings, yellow-gold fluorescence (FL1 channel, excitation, 488 nm; emission, 530±30 nm) for cytoplasmic neutral lipids and red fluorescence (FL2 channel, excitation, 488 nm; emission, 585±21 nm) for polar lipids, consist of phospholipids, other amphipathic lipids, and strongly hydrophobic proteins of cell membranes as reported. Stained cells were evaluated by FACS Calibur flow cytometer (BD Bioscience). Analysis was performed using CellQuest software (BD Bioscience).
As shown in FIGS. 5A-B, monocytes were infected with M. tuberculosis bacteria followed by treatment with EZETIMIBE for 24 hours. Nile red staining was used to assess the intracellular lipid droplets by flow cytometry. Nile red fluorescence was examined at two spectral settings, yellow-gold fluorescence (FL1 channel, excitation, 488 nm; emission, 530±30 nm) for cytoplasmic neutral lipids, included triglyceride, cholesterol, cholesterol esters and free fatty acid, and red fluorescence (FL2 channel, excitation, 488 nm; emission, 585±21 nm) for polar lipids. Significant increase fluorescence intensity of FL1 channel not FL2 channel was observed following cholesterol supplement (10 μg/ml) in monocytes culture without infection, and EZETIMIBE (10 μg/ml and 20 μg/ml) can inhibit the uptake of cholesterol by reducing the relative fluorescence of FL1 channel from 1.5 to 1.2 and 1.3, respectively.

[4] = system: intracellular M. tuberculosis in monocytes; experiment: Intracellular survival of M. tuberculosis in monocytes with cholesterol supplement (CFU assay); format: cell-based, Mycobacterium tuberculosis; conditions: post-treatment 24 hours

T1 sequence (P15144 whole entry): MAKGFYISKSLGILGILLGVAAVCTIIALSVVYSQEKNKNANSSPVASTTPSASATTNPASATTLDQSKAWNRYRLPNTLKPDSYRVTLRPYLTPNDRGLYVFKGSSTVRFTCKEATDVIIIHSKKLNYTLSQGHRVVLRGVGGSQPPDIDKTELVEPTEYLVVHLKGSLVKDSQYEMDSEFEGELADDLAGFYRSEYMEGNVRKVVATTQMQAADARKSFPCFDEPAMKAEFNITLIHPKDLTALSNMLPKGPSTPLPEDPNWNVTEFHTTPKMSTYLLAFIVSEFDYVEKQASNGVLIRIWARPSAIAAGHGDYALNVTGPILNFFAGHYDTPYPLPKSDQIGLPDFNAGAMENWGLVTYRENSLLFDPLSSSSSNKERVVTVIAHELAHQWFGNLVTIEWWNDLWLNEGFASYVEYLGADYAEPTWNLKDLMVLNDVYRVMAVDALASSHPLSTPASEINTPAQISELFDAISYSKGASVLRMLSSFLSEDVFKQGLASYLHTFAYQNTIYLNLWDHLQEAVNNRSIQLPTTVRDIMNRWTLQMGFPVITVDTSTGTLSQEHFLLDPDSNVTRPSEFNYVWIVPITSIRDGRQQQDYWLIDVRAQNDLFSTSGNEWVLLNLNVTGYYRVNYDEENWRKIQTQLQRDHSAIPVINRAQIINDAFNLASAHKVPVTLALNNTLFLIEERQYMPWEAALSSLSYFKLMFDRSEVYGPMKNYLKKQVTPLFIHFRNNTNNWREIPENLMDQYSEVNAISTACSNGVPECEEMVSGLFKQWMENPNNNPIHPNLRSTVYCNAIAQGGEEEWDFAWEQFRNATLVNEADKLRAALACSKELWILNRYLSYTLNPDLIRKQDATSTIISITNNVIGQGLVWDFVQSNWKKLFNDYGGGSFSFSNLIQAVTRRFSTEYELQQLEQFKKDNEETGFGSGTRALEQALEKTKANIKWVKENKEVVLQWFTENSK

## O=C1[C@H](CC[C@H](O)c2ccc(F)cc2)[C@@H](c2ccc(O)cc2)N1c1ccc(F)cc1 [EZETIMIBE, (3R,4S)-1-(4-fluorophenyl)-3-[(3S)-3-(4-fluorophenyl)-3-hydroxypropyl]-4-(4-hydroxyphenyl)zetidin-2-one]
[1]; 15 and 30 μg/ml for 72 hours, read at 3rd week (FIG. 1C)
  colony-forming units (CFU) of Mycobacterium tuberculosis on 7H11 agar plate: significantly reduced
[1]; FIG. 1B
  M. tuberculosis survival in suspension with increasing amount of bacteria: inhibition on M. tuberculosis survival was found
[1]; increasing concentrations, 2nd and 3rd week (FIG. 1A)
  growth of Mycobacterium tuberculosis in 7H9 broth: inhibition effect on growth
[2]; post-treatment of monocytes, 24 hours
  entry reduction of M. tuberculosis into monocytes: up to 0.65%
[2]; post-treatment of monocytes, 48 hours
  entry reduction of M. tuberculosis into monocytes: ≤ 26.02%
[2]; pre-treatment of monocytes, 48 hours
  entry reduction of M. tuberculosis into monocytes: up to 18.28%
[3]; post-treatment: infection 1 hour then 10 ng/ml for 24 hours, without drug 8320
  CFU counts: 4090 per 10,000 cells
[3]; post-treatment: infection 1 hour then 20 ng/ml for 24 hours, without drug 8320
  CFU counts: 2858 per 10,000 cells
[3]; pre-treatment 1 hour then infection 24 hours, 10 ng/ml, without drug 7358
  CFU counts: 5880 per 10,000 cells
[3]; pre-treatment 1 hour then infection 24 hours, 20 ng/ml, without drug 7358
  CFU counts: 4000 per 10,000 cells
CD13
  CD13 expression on monocytes: down-regulation of CD13 expression
monocytes; M. tuberculosis infected monocytes, 24 hours, EZETIMIBE 10 μg/ml, without drug 1.4
  relative fluorescence of FL1 channel (nile red, neutral lipids): 0.9
monocytes; M. tuberculosis infected monocytes, 24 hours, EZETIMIBE 20 μg/ml, without drug 1.4
  relative fluorescence of FL1 channel (nile red, neutral lipids): 1.0
monocytes; monocytes without infection, EZETIMIBE 10 μg/ml, without drug 1.5
  relative fluorescence of FL1 channel (nile red, neutral lipids): 1.2
monocytes; monocytes without infection, EZETIMIBE 20 μg/ml, without drug 1.5
  relative fluorescence of FL1 channel (nile red, neutral lipids): 1.3
[4]; EZETIMIBE 10 μg/ml, cholesterol supplement 10 μg/ml, without drug 10600
  CFU counts: 7692 per 10,000 cells
[4]; EZETIMIBE 10 μg/ml, cholesterol supplement 20 μg/ml
  CFU counts: 12545 per 10,000 cells
[4]; EZETIMIBE 20 μg/ml, cholesterol supplement 10 μg/ml, without drug 10600
  CFU counts: 4800 per 10,000 cells
[4]; EZETIMIBE 20 μg/ml, cholesterol supplement 20 μg/ml
  CFU counts: 10333 per 10,000 cells
